Measurements: US5955501A, “Protein kinase C modulators O” (priority 1995, dated 1999)
Counter-ions that a name gives are not always drawn.

The molecules below were run on HIV (assay: Anti-HIV activity in HIV-infected human peripheral blood lymphocytes (supernatant viral RNA and p24 core protein)). Conditions: Human immunodeficiency virus 1, Lymphocyte, 96 h; supernatant total viral RNA; at four days; read-out: ED50, concentration of drug giving 50% inhibition of production of viral RNA.
Format: cell-based
Protocol: Human peripheral blood lymphocytes were isolated from the buffy coat fractions of blood donations. The lymphocytes were then stimulated with 5 μg/ml of phytohemagglutinin for 48 hours. Prior to infection with HIV, the lymphocytes were washed and resuspended in mitogen-free medium. On day 0 the cells were infected with HIV and were cultured for four days in the presence or absence of graded concentrations of 20-deoxy-20-chlorophorbol 12,13-bis[(2',4'-difluorophenyl)acetate]. On days 3 and 4 the supernatant levels of total viral RNA and viral core protein p24 were determined at each drug concentration and dose-response curves were used to determine the concentration of drug giving 50% inhibition of production of viral RNA and of p24 core protein. At four days these ED50 values were less than 100 pM for both RNA and p24.
(§1) In a manner similar to Example 111, the anti-HIV ED50 values for RNA [drug concentration is in brackets] for the following diterpenoid compounds were determined from dose-response curves or by estimation from one or more experimental drug concentrations.
as §1, with “indolactam-type” for “diterpenoid”, “concentrations, data giving percent inhibition of viral RNA production at selected concentrations appear in parentheses:” for “concentrations.”
as §1, with “diacylglycero-type” for “diterpenoid”, “concentrations; data giving percent inhibition of viral RNA production at selected concentrations appear in parentheses: […]” for “concentrations.”

`CC1=C[C@H]2[C@@]3(O)[C@H](C)[C@@H](OC(=O)Cc4ccc(F)cc4F)[C@]4(OC(=O)Cc5ccc(F)cc5F)[C@H]([C@@H]3C=C(CCl)C[C@]2(O)C1=O)C4(C)C` [20-deoxy-20-chlorophorbol 12,13-bis[(2',4'-difluorophenyl)acetate]] was tested, and the EC50 was less than 0.1 nM.

Same assay, conditions: Human immunodeficiency virus 1, Lymphocyte, 96 h; supernatant viral core protein p24; at four days; read-out: ED50, concentration of drug giving 50% inhibition of production of p24 core protein

For `CC1=C[C@H]2[C@@]3(O)[C@H](C)[C@@H](OC(=O)Cc4ccc(F)cc4F)[C@]4(OC(=O)Cc5ccc(F)cc5F)[C@H]([C@@H]3C=C(CCl)C[C@]2(O)C1=O)C4(C)C` [20-deoxy-20-chlorophorbol 12,13-bis[(2',4'-difluorophenyl)acetate]], the EC50 was less than 0.1 nM.

Same assay, conditions: Human immunodeficiency virus 1, Lymphocyte, read-out: percent inhibition of viral RNA production

First: CNC(=O)OC[C@@H]1Cc2cn(CC[P+](c3ccccc3)(c3ccccc3)c3ccccc3)c3cccc(c23)N(C)[C@@H](C(C)C)C(=O)N1 (relative stereo) [rac-14-O-(N-methyl)carbamoyl-1-N-(2'-triphenylphosphonium)ethylindolactam V, methanesulfonate salt]
Second: CNC(=O)OC[C@@H]1Cc2c[nH]c3cccc(c23)N(C)[C@@H](C(C)C)C(=O)N1 (relative stereo) [rac-14-O-(N-methyl)carbamoylindolactam V]
The inhibition at 10 µM of the first is higher: 82% for the first, 52% for the second.

`CCCCCCCCc1ccc2c3c(c[nH]c13)C[C@@H](COC(=O)NC)NC(=O)[C@H](C(C)C)N2C` [14-O-(N-Methyl)carbamoyl-7-octyl-(9S,12S)-indolactam V] gave an inhibition at 10 µM of 87%.

Same assay, conditions: Human immunodeficiency virus 1, Lymphocyte; at 10 μM; read-out: percent inhibition of viral RNA production

`CCOC(=O)[C@@H]1Cc2cn(CO)c3cccc(c23)N(C)[C@@H](C(C)C)C(=O)N1` [1-N-hydroxymethyl-9-deshydroxymethyl-9-ethoxycarbonylindolactam V] showed an inhibition at 10 µM of 31%.

Same assay, conditions: Human immunodeficiency virus 1, Lymphocyte; from dose-response curves or by estimation from one or more experimental drug concentrations; read-out: anti-HIV ED50 for RNA

First: O=C1CCCCCCCCCCCCCCCCCCC(=O)OC(CSCCO)CO1 (stereo not shown) [3-[(2'-hydroxyethylthio)methyl]-1,6-dioxo-2,5-dioxacyclotetracosane]
Second: CC(C)[C@H]1C(=O)N[C@H](CSCCO)Cc2c[nH]c3cccc(c23)N1C [14-deoxy-14-(2'-hydroxyethylthio)indolactam V]
The EC50 of the first is 100-fold lower: 10 nM for the first, 1000 nM for the second.

Going from `CC1=C[C@H]2[C@@]3(O)[C@H](C)[C@@H](OC(=O)Cc4ccc(F)cc4F)[C@]4(OC(=O)Cc5ccc(F)cc5F)[C@H]([C@@H]3C=C(C#N)C[C@]2(O)C1=O)C4(C)C` [6-deshydroxymethyl-6-cyanophorbol 12,13-bis[(2',4'-difluorophenyl)acetate]] to `CC1=C[C@H]2[C@@]3(O)[C@H](C)[C@@H](OC(=O)Cc4ccc(F)cc4F)[C@]4(OC(=O)Cc5ccc(F)cc5F)[C@H]([C@@H]3C=C(CN)C[C@]2(O)C1=O)C4(C)C` [20-deoxy-20-aminophorbol 12,13-bis[(2',4'-difluorophenyl)acetate]], the EC50 rises from less than 100 nM to 100 nM. The first is the more potent here.

Compared with `COC(=O)C1=C[C@H]2[C@@H]3C(C)(C)[C@]3(OC(=O)Cc3ccc(F)cc3F)[C@H](OC(=O)Cc3ccc(F)cc3F)[C@@H](C)[C@]2(O)[C@@H]2C=C(C)C(=O)[C@@]2(O)C1` [6-deshydroxymethyl-6-methoxycarbonylphorbol 12,13-bis[(2',4'-difluorophenyl)acetate]], `CC1=C[C@H]2[C@@]3(O)[C@H](C)[C@@H](OC(=O)Cc4ccc(F)cc4F)[C@]4(OC(=O)Cc5ccc(F)cc5F)[C@H]([C@@H]3C=C(CBr)C[C@]2(O)C1=O)C4(C)C` [20-deoxy-20-bromophorbol 12,13-bis[(2',4'-difluorophenyl)acetate]] is lower in EC50: 1600 nM for the first, less than 1 nM for the second.

Going from `CCCCCCCCc1ccc2c3c(c[nH]c13)C[C@@H](CSCCO)NC(=O)[C@H](C(C)C)N2C` [14-deoxy-14-(2'-hydroxyethylthio)-7-octyl-(9S,12S)-indolactam V] to `CCCCCCCCCCCCCC(=O)O[C@@H]1[C@@H](C)[C@@]2(O)[C@@H](C=C(C[S+]([O-])CCO)C[C@]3(O)C(=O)C(C)=C[C@@H]23)[C@@H]2C(C)(C)[C@]12OC(C)=O` (stereo partly shown) [20-deoxy-20-(2'-hydroxyethylsulfinyl)phorbol 12-myristate 13-acetate], the EC50 rises from 100 nM to 1100 nM (11-fold).

First: CC1=C[C@H]2[C@@]3(O)[C@H](C)[C@@H](OC(=O)Cc4ccc(F)cc4F)[C@]4(OC(=O)Cc5ccc(F)cc5F)[C@H]([C@@H]3C=C(COC(=O)Oc3ccc(O)cc3)C[C@]2(O)C1=O)C4(C)C [20-O-(4'-hydroxyphenoxy)carbonylphorbol 12,13-bis[(2',4'-difluorophenyl)acetate]]
Second: CC1=C[C@H]2[C@@]3(O)[C@H](C)[C@@H](OC(=O)Cc4ccc(F)cc4F)[C@]4(OC(=O)Cc5ccc(F)cc5F)[C@H]([C@@H]3C=C(CNc3cccc(CO)c3)C[C@]2(O)C1=O)C4(C)C [20-deoxy-20-[(3'-hydroxymethylphenyl)amino]phorbol 12,13-bis[(2',4'-difluorophenyl)acetate]]
The EC50 of the first is lower: less than 10 nM for the first, 180 nM for the second. The first is the more potent here.

`CC1=C[C@H]2[C@@]3(O)[C@H](C)[C@@H](OC(=O)Cc4ccc(F)cc4F)[C@]4(OC(=O)Cc5ccc(F)cc5F)[C@H]([C@@H]3C=C(C=NO)C[C@]2(O)C1=NO)C4(C)C` [20-deoxy-3-deoxo-3,20-bis(hydroximino)phorbol 12,13-bis[(2',4'-difluorophenyl)acetate]] and `CC1=C[C@H]2[C@@]3(O)[C@H](C)[C@@H](OC(=O)Cc4ccc(F)cc4F)[C@]4(OC(=O)Cc5ccc(F)cc5F)[C@H]([C@@H]3C=C(CN=[N+]=[N-])C[C@]2(O)C1=O)C4(C)C` [20-deoxy-20-azidophorbol 12,13-bis[(2',4'-difluorophenyl)acetate]] are within 1.5-fold of each other in EC50: 45 nM for the first, 65 nM for the second.

First: CC1=C[C@H]2[C@@]3(O)[C@H](C)[C@@H](OC(=O)Cc4ccc(F)cc4F)[C@]4(OC(=O)Cc5ccc(F)cc5F)[C@H]([C@@H]3C=C(CSCC(O)CO)C[C@]2(O)C1=O)C4(C)C (stereo partly shown) [20-deoxy-20-(2',3'-dihydroxypropylthio)phorbol 12,13-bis[(2',4'-difluorophenyl)acetate]]
Second: CC1=C[C@H]2[C@@]3(O)[C@H](C)[C@@H](OC(=O)Cc4ccc(F)cc4F)[C@]4(OC(=O)Cc5ccc(F)cc5F)[C@H]([C@@H]3C=C(CSCCO)C[C@]2(O)C1=O)C4(C)C [20-deoxy-20-(2'-hydroxyethylthio)phorbol 12,13-bis[(2',4'-difluorophenyl)acetate]]
The EC50 of the first is 3-fold higher: 3000 nM for the first, 1000 nM for the second. The second is the more potent here.

Going from `CC1=C[C@H]2[C@@]3(O)[C@H](C)[C@@H](OC(=O)Cc4ccc(F)cc4F)[C@]4(OC(=O)Cc5ccc(F)cc5F)[C@H]([C@@H]3C=C(CSCCC(=O)O)C[C@]2(O)C1=O)C4(C)C` [20-deoxy-20-(2'-carboxyethylthio)phorbol 12,13-bis(2',4'-difluorophenylacetate)] to `CC1=C[C@H]2[C@@]3(O)[C@H](C)[C@@H](OC(=O)Cc4ccc(F)cc4F)[C@]4(OC(=O)Cc5ccc(F)cc5F)[C@H]([C@@H]3C=C(CSCCS)C[C@]2(O)C1=O)C4(C)C` [20-deoxy-20-(2'-mercaptoethylthio)phorbol 12,13-bis[(2',4'-difluorophenyl)acetate]], the EC50 falls from 4500 nM to 50 nM (90-fold). The second is the more potent here.

Compared with `CC1=C[C@H]2[C@@]3(O)[C@H](C)[C@@H](OC(=O)Cc4ccc(F)cc4F)[C@]4(OC(=O)Cc5ccc(F)cc5F)[C@H]([C@@H]3C=C(C[S+]([O-])CCO)C[C@]2(O)C1=O)C4(C)C` (stereo partly shown) [20-deoxy-20-(2'-hydroxyethylsulfinyl)phorbol 12,13-bis[(2',4'-difluorophenyl)acetate]], `CCC[S+]([O-])CC1=C[C@H]2[C@@H]3C(C)(C)[C@]3(OC(=O)Cc3ccc(F)cc3F)[C@H](OC(=O)Cc3ccc(F)cc3F)[C@@H](C)[C@]2(O)[C@@H]2C=C(C)C(=O)[C@@]2(O)C1` (stereo partly shown) [20-deoxy-20-(propylsulfinyl)phorbol 12,13-bis[(2',4'-difluorophenyl)acetate]] is 3.2-fold lower in EC50: 1600 nM for the first, 500 nM for the second. The second is the more potent here.

Compared with `CC1=C[C@H]2[C@@]3(O)[C@H](C)[C@@H](OC(=O)Cc4ccc(F)cc4F)[C@]4(OC(=O)Cc5ccc(F)cc5F)[C@H]([C@@H]3C=C(CS(=O)(=O)CCO)C[C@]2(O)C1=O)C4(C)C` [20-deoxy-20-(2'-hydroxyethylsulfonyl)phorbol 12,13-bis[(2',4'-difluorophenyl)acetate]], `CCCCCCCCCCCCCC(=O)O[C@@H]1[C@@H](C)[C@@]2(O)[C@@H](C=C(CS(=O)(=O)CCO)C[C@]3(O)C(=O)C(C)=C[C@@H]23)[C@@H]2C(C)(C)[C@]12OC(C)=O` [20-deoxy-20-(2'-hydroxyethylsulfonyl)phorbol 12-myristate 13-acetate] is 10-fold lower in EC50: 5000 nM for the first, 500 nM for the second.

For `CC1=C[C@H]2[C@@]3(O)[C@H](C)[C@@H](OC(=O)Cc4c(F)c(F)c(F)c(F)c4F)[C@]4(OC(=O)Cc5c(F)c(F)c(F)c(F)c5F)[C@H]([C@@H]3C=C(CCl)C[C@]2(O)C1=O)C4(C)C` [20-deoxy-20-chlorophorbol 12,13-bis[(pentafluorophenyl)acetate]], the EC50 was less than 1 nM.

Same assay, conditions: at 10 μM

Going from “9-Deshydroxymethyl-9-[N-(2',3'-dihydroxy)propyl]carboxamidoindolactam V” to “9-deshydroxymethyl-9-[N-(2'-glucosyl)]carboxamidoindolactam V”, the “percent inhibition of viral RNA production” value rises from 22% to 35%.

First: 9-deshydroxymethyl-9-ethoxycarbonylindolactam V
Second: CC(C)C1C(=O)NC(C(=O)OCC(O)CO)Cc2c[nH]c3cccc(c23)N1C (stereo not shown) [9-deshydroxymethyl-9-(2',3'-dihydroxy)propyloxycarbonylindolactam V]
The “percent inhibition of viral RNA production” value of the first is higher: 47% for the first, 20% for the second.
